Laboratory results taken from patent US20130116263A1, “PAK INHIBITORS FOR THE TREATMENT OF CELL PROLIFERATIVE DISORDERS” (AFRAXIS, INC., priority 2011, published 2013).
Like-named read-outs stand apart in the source and are kept apart here.

Legend:
p-MEK1(S298) = assay: In vitro cellular HTRF assay for p-MEK1(S298); format: cell-based; conditions: cell line RT4-D6P2T, read-out: pMEK1(S298)
From the text: (§1) Some of the compounds for treatment of cancer are subject to in vitro cellular HTRF assay for p-PAK1(S144) and p-MEK1(S298). The cell line is RT4-D6P2T.

p-PAK1(S144) = assay: In vitro cellular HTRF assay for p-PAK1(S144); format: cell-based; conditions: cell line RT4-D6P2T, read-out: pPAK1(S144)
From the text: as §1

SK-MES-1 = assay: Growth inhibition in cancer cell lines (CellTiter-Glo), SK-MES-1; format: cell-based; conditions: SK-MES-1, 72 hours exposure
SKOV-3 = assay: Growth inhibition in cancer cell lines (CellTiter-Glo), SKOV-3; format: cell-based; conditions: Homo sapiens, SK-OV-3; SKOV-3, 72 hours exposure
From the text: (§2) Methodology: 60 cell lines (CCRF-CEM, HL-60(TB), K-562, MOLT-4, RPMI-8226, SR, A549, EKVX, HOP-62, HOP-92, NCI-H226, NCI-H23, NCI-H322M, NCI-H460, NCI-H522, COLO 205, HCC-2998, HCT-116, HCT-15, HT29, KM12, SW-620, SF-268, SF-295, SF-539, SNB-19, SNB-75, U251, LOX IMV1, MALME-3M, M14, SK-MEL-2, SK− MEL-28, SK-MEL-5, UACC-257, UACC-62, IGR-OV 1, OVCAR-3, OVCAR-4, OVCAR-5, OVCAR-8, SK-OV-3, 786-0, A498, ACHN, CAKI-1, RXF 393, SN12C, TK-10, UO-31, PC-3, DU-145, MCF7, NCI/ADR-RES, MDA-MB-231, HS 578T, MDA-MB-435, MDA-MB-468, BT-549, and T-47D) are grown in RPMI-1640 medium with 10% FBS. Stock solutions of a test compound are prepared in DMSO. Concentrations of from about 0.001 μM to about 20 μM of each compound in RPM-1640 media are prepared. The test compound is added to wells containing 50 μL of cells and medium. A CellTiter-Glo (CTG) assay is carried out on the 0 hr plate to obtain a 0 hr count. Cells are exposed to the test compound for 72 hours. Following the exposure period, the plates are assayed using CTG. Luminescence is recorded on Synergy.
(§3) As a non-limiting example, Compound 30 as described herein was tested for growth inhibition against various cancer cell lines.

IGROV-1 = assay: Growth inhibition in cancer cell lines (CellTiter-Glo), IGROV-1; format: cell-based; conditions: IGROV-1, 72 hours exposure
From the text: as §2, §3

OVCAR-3 = assay: Growth inhibition in cancer cell lines (CellTiter-Glo), OVCAR-3; format: cell-based; conditions: OVCAR-3, 72 hours exposure
From the text: as §2, §3

NCI-H520 = assay: Growth inhibition in cancer cell lines (CellTiter-Glo), NCI-H520; format: cell-based; conditions: NCI-H520, 72 hours exposure
From the text: as §2, §3

EBC-1 = assay: Growth inhibition in cancer cell lines (CellTiter-Glo), EBC-1; format: cell-based; conditions: EBC-1, 72 hours exposure
OVCAR-4 = assay: Growth inhibition in cancer cell lines (CellTiter-Glo), OVCAR-4; format: cell-based; conditions: OVCAR-4, 72 hours exposure
From the text: as §2, §3

PAK1 = PAK1 (Homo sapiens, UniProt Q13153); assay: Additional in vitro PAK1 inhibition assay at ATP 10 uM and 1 mM; format: biochemical
PAK1, sequence (Q13153 whole entry): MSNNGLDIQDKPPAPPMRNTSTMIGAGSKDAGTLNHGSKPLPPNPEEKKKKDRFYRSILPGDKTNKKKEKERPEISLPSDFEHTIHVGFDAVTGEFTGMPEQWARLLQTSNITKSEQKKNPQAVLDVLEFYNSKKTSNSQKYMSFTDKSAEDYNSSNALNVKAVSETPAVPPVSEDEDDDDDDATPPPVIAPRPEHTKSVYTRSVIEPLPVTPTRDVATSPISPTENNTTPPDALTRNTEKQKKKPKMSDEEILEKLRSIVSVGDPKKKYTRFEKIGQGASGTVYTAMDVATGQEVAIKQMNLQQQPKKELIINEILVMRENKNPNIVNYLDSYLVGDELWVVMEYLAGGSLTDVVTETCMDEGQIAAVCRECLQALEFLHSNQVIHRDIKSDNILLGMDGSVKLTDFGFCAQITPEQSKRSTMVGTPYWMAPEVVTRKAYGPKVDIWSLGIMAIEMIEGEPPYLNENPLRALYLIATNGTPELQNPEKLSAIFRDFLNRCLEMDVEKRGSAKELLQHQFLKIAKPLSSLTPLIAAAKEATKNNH
Experimental: (§4) Similar in vitro PAK1 and PAK-4 inhibition assays are conducted in compounds for the treatment of cancer, but under ATP concentrations of 10 uM and 1 mM.

PAK4 = PAK4 (Homo sapiens, UniProt O96013); assay: Additional in vitro PAK-4 inhibition assay at ATP 10 uM and 1 mM; format: biochemical; conditions: 10 μM ATP; read-out: PAK4 IC50 (10 μM ATP)
PAK4, sequence (O96013 whole entry): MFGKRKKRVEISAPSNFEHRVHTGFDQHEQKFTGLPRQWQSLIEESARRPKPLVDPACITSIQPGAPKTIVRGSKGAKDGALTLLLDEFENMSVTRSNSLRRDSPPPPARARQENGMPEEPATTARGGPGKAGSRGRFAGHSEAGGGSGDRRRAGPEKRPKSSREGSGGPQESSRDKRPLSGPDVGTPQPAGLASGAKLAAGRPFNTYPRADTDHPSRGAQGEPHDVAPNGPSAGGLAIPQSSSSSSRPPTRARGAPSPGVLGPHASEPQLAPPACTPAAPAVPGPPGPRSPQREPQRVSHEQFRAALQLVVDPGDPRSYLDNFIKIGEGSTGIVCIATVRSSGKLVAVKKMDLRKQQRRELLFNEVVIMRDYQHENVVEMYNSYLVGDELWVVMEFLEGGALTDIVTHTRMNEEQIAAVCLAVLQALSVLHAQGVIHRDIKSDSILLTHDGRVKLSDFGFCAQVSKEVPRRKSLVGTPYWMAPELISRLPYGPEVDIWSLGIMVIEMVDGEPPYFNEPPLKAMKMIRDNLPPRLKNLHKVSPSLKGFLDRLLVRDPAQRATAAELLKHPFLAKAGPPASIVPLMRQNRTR
Experimental: as §4

[1] = 10 μM ATP, read-out: PAK1 IC50 (10 μM ATP)
[2] = 1 mM ATP, read-out: PAK1 IC50 (1 mM ATP)

CCn1c(=O)c(-c2ccc(-c3cncc(C)n3)cc2Cl)cc2cnc(NCCC3CCN(C)CC3)nc21 [drawing 390]
IC50 (p-MEK1(S298)): 50 to 500 nM | IC50 (p-PAK1(S144)): 50 to 500 nM

Cc1nc(-c2ccc(-c3cc4cnc(NC5CCOCC5)nc4n(CC(=O)N4CCC(CN)CC4)c3=O)c(Cl)c2)no1 [drawing 381]
IC50 (p-MEK1(S298)): > 5000 nM

CN(C)C[C@@H](NC(=O)N1Cc2c(Nc3ncnc4sccc34)n[nH]c2C1(C)C)c1ccccc1
IC50 (p-MEK1(S298)): 500 to 5000 nM | IC50 (p-PAK1(S144)): 50 to 500 nM

Cc1nc(-c2ccc(-c3cc4cnc(NC5CCNC(=O)C5)nc4n(Cc4c(F)cccc4C(F)(F)F)c3=O)c(Cl)c2)no1 (centres unmarked) [drawing 382]
IC50 (p-MEK1(S298)): > 5000 nM | IC50 (p-PAK1(S144)): 500 to 5000 nM

Cc1nc(-c2ccc(-c3cc4cnc(NC5CCOCC5)nc4n(Cc4cccc(OCCN)c4)c3=O)c(Cl)c2)no1 [drawing 380]
IC50 (p-MEK1(S298)): 500 to 5000 nM | IC50 (p-PAK1(S144)): 500 to 5000 nM

CCn1c(=O)c(-c2ccc(-c3cccc(C)n3)cc2Cl)cc2cnc(N[C@H]3CC[C@H](CN(C)C)CC3)nc21
IC50 (p-MEK1(S298)): 500 to 5000 nM | IC50 (p-PAK1(S144)): 500 to 5000 nM

Cc1cncc(-c2ccc(-c3cc4cnc(N[C@@H]5CCOC5)nc4n(CCCN)c3=O)c(Cl)c2)n1 [drawing 384]
IC50 (p-MEK1(S298)): 500 to 5000 nM | IC50 (p-PAK1(S144)): 500 to 5000 nM

Cc1nc(-c2ccc(-c3cc4cnc(NC5CCOCC5)nc4n(CC(=O)NCc4ccncc4)c3=O)c(Cl)c2)no1 [drawing 388]
IC50 (p-MEK1(S298)): > 5000 nM | IC50 (p-PAK1(S144)): 500 to 5000 nM

CCn1c(=O)c(-c2ccc(-c3cccnc3F)cc2Cl)cc2cnc(NC3CCOCC3)nc21 [drawing 392]
IC50 (p-MEK1(S298)): 500 to 5000 nM | IC50 (p-PAK1(S144)): 500 to 5000 nM

Cc1nc(-c2ccc(-c3cc4cnc(NC5CCOCC5)nc4n(CC(=O)NC4CCNC4)c3=O)c(Cl)c2)no1 (centres unmarked) [drawing 387]
IC50 (p-MEK1(S298)): > 5000 nM

Cc1nc(-c2ccc(-c3cc4cnc(NC5CCOCC5)nc4n(CC4CCNCC4)c3=O)c(Cl)c2)no1 [drawing 396]
IC50 (p-MEK1(S298)): 500 to 5000 nM | IC50 (p-PAK1(S144)): 50 to 500 nM

CCn1c(=O)c(-c2ccc(-c3nccnc3C)cc2Cl)cc2cnc(NC3CCOC(C)(C)C3)nc21 (centres unmarked) [Compound 30]
GI50 (SK-MES-1; Homo sapiens): 3800 nM | Maximum Inhibition (SK-MES-1): −14% | GI50 (SKOV-3): 3800 nM | GI50 (IGROV-1; Homo sapiens): 330 nM | Maximum Inhibition (IGROV-1): −50% | GI50 (OVCAR-3; Homo sapiens): 3100 nM | Maximum Inhibition (OVCAR-3): −20% | GI50 (NCI-H520; Homo sapiens): 6000 nM | Maximum Inhibition (NCI-H520): −17% | Maximum Inhibition (EBC-1): −13% | GI50 (EBC-1; Homo sapiens): 3500 nM | GI50 (OVCAR-4; Homo sapiens): 2600 nM | Maximum Inhibition (OVCAR-4): −50%

Cc1nc(-c2ccc(-c3cc4cnc(NC5CCOCC5)nc4n(CCC4CCNCC4)c3=O)c(Cl)c2)no1 [drawing 378]
IC50 (p-MEK1(S298)): 500 to 5000 nM

Cc1nc(-c2ccc(-c3cc4cnc(NC5CCOCC5)nc4n(Cc4ccc(CN)cc4)c3=O)c(Cl)c2)no1 [drawing 397]
IC50 (p-MEK1(S298)): 500 to 5000 nM | IC50 (p-PAK1(S144)): 50 to 500 nM

CCn1c(=O)c(-c2ccc(-c3cncc(C)n3)cc2Cl)cc2cnc(NCC3CCC(N)CC3)nc21 (centres unmarked) [drawing 383]
IC50 (p-MEK1(S298)): 500 to 5000 nM | IC50 (p-PAK1(S144)): 50 to 500 nM

CCn1c(=O)c(-c2ccc(-c3nccnc3C)cc2Cl)cc2cnc(NC3CCOC(C)(C)C3)nc21 (centres unmarked) [drawing 385]
IC50 (p-MEK1(S298)): 500 to 5000 nM | IC50 (p-PAK1(S144)): 500 to 5000 nM

Cc1nc(-c2ccc(-c3cc4cnc(NC5CCOCC5)nc4n(Cc4ccc(CCN)cc4)c3=O)c(Cl)c2)no1 [drawing 394]
IC50 (p-MEK1(S298)): 500 to 5000 nM | IC50 (p-PAK1(S144)): 50 to 500 nM

Cc1nc(-c2ccc(-c3cc4cnc(NC5CCOCC5)nc4n(Cc4cccc(CN)c4)c3=O)c(Cl)c2)no1 [drawing 379]
IC50 (p-MEK1(S298)): 500 to 5000 nM | IC50 (p-PAK1(S144)): 50 to 500 nM

CCn1c(=O)c(-c2ccc(-c3cncc(C)n3)cc2Cl)cc2cnc(N[C@H]3CCOC3)nc21 [drawing 389]
IC50 (p-MEK1(S298)): > 5000 nM | IC50 (p-PAK1(S144)): 500 to 5000 nM

CCn1c(=O)c(-c2ccc(-c3cncc(C)n3)cc2Cl)cc2cnc(NC3CCOCC3)nc21 [drawing 391]
IC50 (p-MEK1(S298)): 500 to 5000 nM | IC50 (p-PAK1(S144)): 50 to 500 nM

Cc1nc(-c2ccc(-c3cc4cnc(NC5CCOCC5)nc4n(Cc4cccc(CCN)c4)c3=O)c(Cl)c2)no1 [drawing 395]
IC50 (p-MEK1(S298)): 50 to 500 nM | IC50 (p-PAK1(S144)): 50 to 500 nM

Cc1nc(-c2ccc(-c3cc4cnc(NC5CCOCC5)nc4n(C4CC4)c3=O)c(Cl)c2)no1
IC50 (PAK1; [1]): 50 to 500 nM | IC50 (PAK1; [2]): ≥ 5000 nM | IC50 (PAK4): ≥ 5000 nM

Cc1nc(-c2ccc(-c3cc4cnc(NC5CCOCC5)nc4n(Cc4c(F)cccc4C(F)(F)F)c3=O)c(Cl)c2)no1
IC50 (PAK1; [1]): 50 to 500 nM | IC50 (PAK1; [2]): 500 to 5000 nM | IC50 (PAK4): ≥ 5000 nM

CCn1c(=O)c(-c2ccc(-c3noc(C)n3)cc2Cl)cc2cnc(N[C@H]3COC[C@H]3O)nc21
IC50 (PAK1; [1]): 500 to 5000 nM | IC50 (PAK1; [2]): ≥ 5000 nM | IC50 (PAK4): ≥ 5000 nM
